Patent publication US5262426A, “N,N'-cycloalkyl/alkyl carboxamide 4H-imidazo-[4,5-b]pyridine compounds as PAF antagonists” (G. D. Searle & Co., priority 1993, dated 1993)

Assays:
[1] = test system: arachidonic acid-induced platelet aggregation; settings: cited from earlier work
bronchoconstriction = settings: cited from earlier work
thromboxane synthetase = settings: cited from earlier work
[2] = molecular target: T1, PAF receptor (human platelet membrane preparation) (Homo sapiens, UniProt P25105); test: Assay A: Human Platelet Receptor Binding ([3H]PAF); settings: for IC50: 0.75 nM [3H]PAF, 30 minutes at 24° C
T1 construct: human platelet membrane preparation; tissue Lifesource, Inc. (Glenview, Ill.); host or cells: human packed platelets (washed, freeze-thaw broken, membrane pellet)
T1 sequence (P25105 whole entry): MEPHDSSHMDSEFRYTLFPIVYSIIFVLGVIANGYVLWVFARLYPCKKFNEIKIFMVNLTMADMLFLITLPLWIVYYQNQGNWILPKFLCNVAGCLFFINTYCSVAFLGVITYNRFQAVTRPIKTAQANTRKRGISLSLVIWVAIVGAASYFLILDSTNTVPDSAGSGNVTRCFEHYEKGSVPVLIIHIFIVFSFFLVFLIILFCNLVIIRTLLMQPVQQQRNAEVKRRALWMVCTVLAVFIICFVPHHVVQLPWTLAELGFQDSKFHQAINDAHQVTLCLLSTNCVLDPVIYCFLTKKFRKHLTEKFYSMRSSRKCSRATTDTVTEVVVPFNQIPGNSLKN
Experimental: Assay A: Human Platelet Receptor Binding
Compounds of the invention were evaluated for their ability to inhibit specific binding of [^3 H]PAF to human platelet membrane preparation. Human packed platelets were obtained from Lifesource, Inc. (Glenview, Ill.) and washed 3 times with 10 mM Trizma pH 7.0, 2 mM EDTA (dipotassium salt), 150 mM KCl and then once with 10 mM Trizma 7.4, 20 mM CaCl2. The platelets were broken by freezing in a dry ice-ethanol bath, followed by thawing in 24° C. water baths. The preparation was centrifuged (40,000 x g, 20 minutes, 4'C) and the pellet resuspended in 10 mM Trizma 7.4, 20 mM CaCl2, 5 mg/ml human albumin. Protein concentration in the platelet membrane preparation was determined by the Lowry method [0. H. Lowry et al, J. Biol. Chem., 193 265-275 (1951)]. Aliquots of the membrane preparation were stored at -70° C. Each preparation was characterized for PAF receptor number and dissociation constant (Kd). In binding assays 5 μl of test compound, solubilzed in DMSO, was added to polypropylene tubes along with 0.75 nM [^3 H]PAF and 200 mcl [0.075 nM] of membranes and 95 μl 10 mM Trizma 7.4, 20 mM CaCL2, 5 mg/ml human albumin. Tubes were incubated for 30 minutes at 24° C. The incubation was terminated by adding 4 ml of ice-cold 10 mM Trizma pH 7.4, 20 mM CaCl2 and 20 mg/ml BSA prior to vacuum filtration using Whatman GF/C filters. Filters were prepared and counted for a scintillation counter. All DPM values were corrected for background and isotope decay. Triplicate determinations for single doses were averaged. The amount of non-specific binding was subtracted from all dose averages, giving an amount of specific binding in all cases. The IC50 values for compounds of the invention determined by the Allfit program using percent displacement data. Allfit is a "basic" computer program for simultaneous curve fitting of a family of sigmoidal dose-response curves using the four parameter logistic equation.

human platelets = test: Assay B: Human Platelet Aggregation Inhibition (PAF-induced, platelet-rich plasma); format: cell-based; settings: 37°
Experimental: Assay B: Human Platelet Aggregation Inhibition
A compound of the invention was evaluated for ability to inhibit PAF-induced aggregation of human platelets in a human-platelet-rich plasma. Venous blood was collected from donors who fasted for 8 hours and were instructed not to use antiinflammatory drugs for 2 weeks prior to blood draw. Blood was collected into syringes containing 0.1 ml of 3.8% [w/v] citrate and centrifuged in polypropylene tubes at 150xg for 20 minutes at room temperature. The platelet rich plasma [PRP] was collected and let sit for 20 minutes at room temperature. Platelet activating factor [PAF] was diluted in 0.9% NaCl with 0.25% bovine serum albumin. Silicon treated cuvettes with stir bars were placed in the 37° heating block of the platelet aggregometer [Bio/Data Corporation, Platelet Aggregation Profiler, Model PAP-4]. PRP and test compound were added to cuvettes and aggregation monitored for 10-15 seconds at 37° with stirring. PAF was added and aggregation monitored for an additional 3 minutes. Peak aggregation was considered the peak of the first aggregation wave usually 45-60 seconds after PAF addition. Inhibition of aggregation was determined by the following: 1- [(% aggregation in the presence of compound).div.(% maximal aggregation)]. A log/logit transformation was used to determine half maximal inhibitory concentration of a test compound [IC50 ].

PAF-induced aggregation = settings: human platelet-rich plasma; cited from earlier work

Row | IC50 [2] | SMILES | other results
1 | – | C(=Cc1ccccc1)Cn1ccnc1 [1-(3-phenyl-2-propenyl)1H-imidazole] | inhibiting arachidonic acid-induced platelet aggregation [1]: effective in inhibiting; inhibiting bronchoconstriction (bronchoconstriction): effective in inhibiting; inhibiting thromboxane synthetase (thromboxane synthetase): effective in inhibiting
2 | 1050 nM | COc1cc(C(=O)N(C2CCCC2)C2CCCC2)ccc1Cn1cccc2ncnc1-2 [Example 1, N,N-dicyclopentyl-4-[(4H-imidazo[4,5-b]pyridin-4-yl)methyl]-3-methoxybenzamide] | –
3 | – | COc1cc(Cn2cccc3ncnc2-3)ccc1C(=O)N(C(C)C)C1CCCCC1 [Example 2, N-cyclohexyl-4-[(4H-imidazo[4,5-b]pyridin-4-yl)methyl]-2-methoxy-N-(1-methylethyl)benzamide] | inhibition at 10 µM ([2]; at 10 μM): 40%
4 | 643 nM | COc1cc(C(=O)N(C(C)C)C2CCCCC2)ccc1Cn1cccc2ncnc1-2 [Example 3, N-cyclohexyl-4-[(4H-imidazo[4,5-b]pyridin-4-yl)methyl]-3-methoxy-N-(1-methylethyl)benzamide] | –
5 | 139 nM | COc1cc(Cn2cccc3ncnc2-3)ccc1C(=O)N(C1CCCC1)C1CC(C)CC(C)C1 (stereo not shown) [Example 4, N-cyclopentyl-N-(3,5-dimethylcyclohexyl)-4-[(4H-imidazo[4,5-b]pyridin-4-yl)methyl]-2-methoxybenzamide] | IC50 (human platelets): 58 nM
6 | 323 nM | COc1cc(C(=O)N(C(C)C)C2CCCCC2)ccc1Cn1cccc2nc(C)nc1-2 [Example 5, N-cyclohexyl-3-methoxy-N-(1-methylethyl)-4-[(2-methyl-4H-imidazo[4,5-b]pyridin-4 yl]methyl]benzamide] | –
7 | 460 nM | COc1cc(C(=O)N(C(C)C)C2CCCCC2)ccc1Cn1cccc2nc(CO)nc1-2 [Example 6, N-cyclohexyl-4-[[2-(hydroxymethyl)-4H-imidazo[4,5-b]pyridin-4-yl]methyl]-3 methoxy-N-(1-methylethyl)benzamide] | –
8 | 732 nM | COc1cc(C(=O)N(C(C)C)C2CCCCC2)ccc1Cn1cccc2nc(-c3ccccn3)nc1-2 [Example 7, N-cyclohexyl-3-methoxy-N-(1-methylethyl)-4-[[2-(2-pyridinyl)-4H-imidazo[4,5-b]pyridin-4-yl]methyl]benzamide] | –
9 | 854 nM | CC(C)N(C(=O)c1ccc(Cn2cccc3ncnc2-3)cc1)C1CCCCC1 [Example 9, N-cyclohexyl-4-[(4H-imidazo[4,5-b]pyridin-4 yl)methyl]-N-(1-methylethyl)benzamide] | –
10 | – | CN(C(=O)c1ccc(Cn2cnc3cnccc32)cc1)C1CCCCC1 [N-cyclohexyl-N-methyl-4-(1H-imidazo[4,5-c]pyridin-1-yl-methyl)benzamide] | inhibition of PAF-induced aggregation (PAF-induced aggregation): inhibitor of PAF-induced aggregation
